From patent US4965280A, “Antifungal carbinols” (E. I. Du Pont de Nemours and Company, priority 1989, dated 1990)
≈ marks a conversion by molar mass, not a printed value. Like-named read-outs stand apart in the source and are kept apart here.

Assays:
[1] = system: Pyricularia oryzae; test: whole plant or invertebrate; format: in vivo; details: Pyricularia oryzae, 120 h; for pest or weed control at 100 ppm: read-out: disease control rating, Ex. E, 100 PPM; for pest or weed control at 20 ppm: read-out: disease control rating, Ex. E, 20 PPM
[2] = system: Phytophthora infestans; test: whole plant or invertebrate; format: in vivo; details: Phytophthora infestans, in Solanum lycopersicum, read-out: disease control rating, Ex. H, 100 PPM
[3] = system: Rhizoctonia solani; test: Example K cotton blight; format: in vivo; details: 336 h, 5 kg/ha, read-out: disease control rating, Ex. K
Experimental: […] Seeds and soil were then inoculated with a mixture of sand, cereal and mycelium of the fungus Rhizoctonia solani, causal agent of cotton blight, and incubated in a growth chamber at 30° C. for 14 days. Disease ratings were then made.

[4] = system: Fusarium oxysporum f. sp. cucumerinum; test: Example L cucumber wilt; format: in vivo; details: 336 h, 5 kg/ha, read-out: disease control rating, Ex. L
Experimental: […] Seeds and soil were then inoculated with a mixture of sand, cereal and mycelium of the fungus Fusarium oxysporum f. sp. cucumerinum, causal agent of cucumber wilt, and incubated in a growth chamber at 30° C. for 14 days. Disease ratings were then made.

[5] = system: Pythium aphanadermatum; test: Example J cucumber damping off; format: in vivo; details: Pythium, 336 h; 5 kg/ha; read-out: disease control rating, Ex. J
Method in brief: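 This cucumber damping-off test used soil and seeds infested with a sand–cereal preparation carrying mycelium of Pythium aphanadermatum. Incubation took place in a growth chamber held at 30° C. for 14 days. Afterwards, the extent of disease was scored as a disease control rating.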

[6] = system: Puccinia recondita; test: Example G wheat leaf rust; format: in vivo; details: read-out: disease control rating, Ex. G
[7] = system: Erysiphe graminis f. sp. tritici; test: Example D wheat powdery mildew; format: in vivo; details: Blumeria graminis, 144 h, read-out: disease control rating, Ex. D
Method in brief: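 Wheat seedlings receive a run-off foliar spray of compound suspended in purified water at 100 or 20 ppm. The carrier holds 250 ppm TREM 014 plus acetone amounting to 6% of final volume.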

[8] = system: Cercosporidium personatum; test: Example B Peanut Late Leafspot; format: in vivo; details: Nothopassalora personata, read-out: disease control rating, Ex. B
Method in brief: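 Each compound is first taken up in acetone, which makes up 6% of the final spray volume. It is then suspended in purified water with 250 ppm TREM 014 at 100 or 20 ppm. Seedlings of peanut are sprayed until run-off.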

[9] = system: Botrytis cinerea; test: Example C bean grey mold; format: in vivo; details: Botrytis cinerea, 24 h, read-out: disease control rating, Ex. C
Method in brief: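 Compound is first dissolved in acetone, the acetone making up 6% of the final volume. The solution is then suspended in purified water with 250 ppm of the polyhydric alcohol ester surfactant TREM 014 to give 100 or 20 ppm. Seedlings of broad bean receive this spray until liquid runs off.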

[10] = system: Rhizoctonia solani; test: Example F rice sheath blight; format: in vivo; details: Rhizoctonia solani, 144 h, read-out: disease control rating, Ex. F
Method in brief: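 Rice seedlings receive a run-off spray of compound suspended at 100 or 20 ppm. The carrier is purified water containing 250 ppm of a polyhydric alcohol ester surfactant, with acetone making up 6% of the final volume.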

[11] = system: Sclerotium rolfsii; test: Example M southern blight; format: in vivo; details: Agroathelia rolfsii, 336 h; 5 kg/ha; read-out: disease control rating, Ex. M
Experimental: […] Seeds and soil were then inoculated with a mixture of sand, cereal and mycelium of the fungus Sclerotium rolfsii, causal agent of sourthern blight, and incubated in a growth chamber at 30° C. for 14 days. Disease ratings were then made.

[12] = system: Plasmorpara viticola; test: Example I grape downy mildew; format: in vivo; details: read-out: disease control rating, Ex. I
Method in brief: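 Grape seedlings sprayed to run-off; test suspension 100 or 20 ppm compound, acetone 6% v/v final, 250 ppm TREM 014 in purified water.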

[13] = system: Candida albicans ATCC 11651; test: In vitro antifungal MIC, microtiter broth dilution; details: Candida albicans, ATCC11651, 24 h, read-out: MIC values, C. albicans, 30°, 24 hours
[14] = system: Venturia inaequalis; test: Example A apple scab; format: in vivo; details: read-out: disease control rating, Ex. A
Method in brief: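 Apple seedlings receive a run-off spray of compound suspended at 100 or 20 ppm. The spray liquid is purified water holding 250 ppm TREM 014, a polyhydric alcohol ester surfactant, plus acetone at 6% of final volume as the solvent.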

[15] = system: Candida albicans ATCC 11651; test: In vivo systemic Candida infection in mice, primary assay; design: species or system Candida albicans; CF-1 female mice; details: Candida albicans, 150 mg/kg per day, read-out: % Survival
Method in brief: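 CF-1 female mice (20 g, 10 per group) were infected IV with 0.2 ml of 1×10^7/ml C. albicans ATCC 11651, then given test compound subcutaneously at 50 or 150 mg/kg/day at 1 and 6 h post-infection and once daily for three more days. Survival was followed for 21 days against infected untreated mice; ≥70% protection at 14 days was scored active.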

[16] = system: Aspergillus fumigatus ATCC 28214; test: In vitro antifungal MIC, microtiter broth dilution; details: Aspergillus fumigatus, ATCC28214, 24 h, read-out: MIC values, A. fumigatus, 30°, 24 hours

| Compound | pest or weed control at 100 ppm [1] [%] | pest or weed control at 100 ppm [2] [%] | pest or weed control at 5000 g/ha [3] [%] | pest or weed control at 5000 g/ha [4] [%] | pest or weed control at 5000 g/ha [5] [%] | pest or weed control at 100 ppm [6] [%] | pest or weed control at 100 ppm [7] [%] | pest or weed control at 100 ppm [8] [%] | pest or weed control at 100 ppm [9] [%] | pest or weed control at 100 ppm [10] [%] | pest or weed control at 5000 g/ha [11] [%] | pest or weed control at 100 ppm [12] [%] | MIC [13] [µg/mL] | pest or weed control at 100 ppm [14] [%] | further results |
| --- | --- | --- | --- | --- | --- | --- | --- | --- | --- | --- | --- | --- | --- | --- | --- |
| C=C(CO)C(O)(Cn1cncn1)c1ccc(Cl)cc1 (stereo not drawn) [Example 447] | 46 | 0 | 0 | 0 | 0 | 30 | 46 | 0 | 24 | 0 | 0 | 24 | 3.2 (≈ 11.4 µM) |  |  |
| C=C(CO)C(O)(Cn1cncn1)c1ccc(Cl)cc1Cl (stereo not drawn) [Example 449] | 76 | 0 | 0 | 0 | 0 | 30 | 0 | 0 | 24 | 13 | 0 | 51 | ≤ 0.4 | 71 |  |
| C=C(CO)C(O)(Cn1cncn1)c1ccc(F)cc1 (stereo not drawn) [Example 450] | 46 | 0 | 0 | 0 | 0 | 30 | 11 | 0 | 54 | 34 | 0 | 51 | > 100 |  |  |
| C=C(CO)C(O)(Cn1cncn1)c1ccc(Br)cc1 (stereo not drawn) [Example 451] | 0 | 0 | 0 | 0 | 0 | 0 | 0 | 100 | 72 | 0 | 0 | 0 | 12.5 (≈ 38.6 µM) | 16 |  |
| C=C(CN(C)C)C(O)(Cn1cncn1)c1ccc(-c2ccccc2)cc1 (stereo not drawn) [Example 456] | 98 | 9 | 0 | 0 | 0 | 96 | 53 | 0 | 58 | 0 | 0 | 0 |  | 82 |  |
| C=C(c1ccccc1)C(O)(Cn1cncn1)c1ccc(Cl)s1 (stereo not drawn) [Example 618] | 0 | 0 | 80 | 80 | 0 | 100 | 89 | 100 | 98 |  |  | 0 |  | 100 |  |
| C=C(c1ccc(F)cc1)C(O)(Cn1cncn1)C(C)C (stereo not drawn) [Example 667] | 0 | 0 | 0 | 0 |  |  |  |  | 4 | 0 | 0 | 10 | 6.3 (≈ 22.9 µM) |  | pest or weed control at 20 ppm [1]: 0%; pest or weed control at 20 ppm [6]: 0%; pest or weed control at 20 ppm [7]: 39%; pest or weed control at 20 ppm [8]: 14%; pest or weed control at 20 ppm [9]: 7%; pest or weed control at 20 ppm [14]: 13%; pest or weed control at 20 ppm [10]: 0%; responders at 150 mg/kg ([15]; ATCC11651, 168 h, day 7): 10%; responders at 150 mg/kg ([15]; ATCC11651, 336 h, day 14): 0%; responders at 150 mg/kg ([15]; ATCC11651, 504 h, day 21): 0%; MIC [16]: 25 µg/mL (≈ 90.8 µM) |
| C=C(c1ccccc1)[C@](O)(Cn1cncn1)c1ccc(F)cc1 [Example 1276] | 1 | 0 |  | 0 | 0 | 100 | 100 |  | 96 | 97 |  | 0 | 0.03 (≈ 0.097 µM) | 100 | pest or weed control at 20 ppm [1]: 1%; pest or weed control at 20 ppm [6]: 100%; pest or weed control at 20 ppm [7]: 100%; pest or weed control at 20 ppm [8]: 100%; pest or weed control at 20 ppm [9]: 86%; pest or weed control at 20 ppm [14]: 93%; pest or weed control at 20 ppm [10]: 52%; responders at 150 mg/kg ([15]; ATCC11651, 168 h, day 7): 100%; responders at 150 mg/kg ([15]; ATCC11651, 336 h, day 14): 70%; responders at 150 mg/kg ([15]; ATCC11651, 504 h, day 21): 50%; MIC [16]: 1.6 µg/mL (≈ 5.17 µM) |
| N#CC[S+]([O-])c1ncnn1CC(O)(c1ccccc1F)C1(c2ccc(F)cc2)CO1 (stereo not drawn) [Example 1468] | 2 | 0 | 60 | 0 | 0 | 93 | 77 | 0 | 0 |  | 0 | 46 |  | 40 |  |
| N#CCS(=O)(=O)c1ncnn1CC(O)(c1ccccc1F)C1(c2ccc(F)cc2)CO1 (stereo not drawn) [Example 1469] | 2 | 24 | 80 | 70 | 0 | 100 | 77 | 84 | 81 |  | 0 | 89 |  | 68 |  |
